Data published in US8415469B2, “Compounds and methods for kinase modulation, and indications therefor” (Plexxikon Inc., priority 2005, dated 2013).

How the values were obtained:
Assay type in all cases: biochemical
Jak3 = molecular target: T1, Jak3 (Homo sapiens, UniProt P52333); test: AlphaScreen kinase assay, Jak3; details: read-out: IC50, activity toward kinase Jak3
T1 sequence (P52333 1-1124): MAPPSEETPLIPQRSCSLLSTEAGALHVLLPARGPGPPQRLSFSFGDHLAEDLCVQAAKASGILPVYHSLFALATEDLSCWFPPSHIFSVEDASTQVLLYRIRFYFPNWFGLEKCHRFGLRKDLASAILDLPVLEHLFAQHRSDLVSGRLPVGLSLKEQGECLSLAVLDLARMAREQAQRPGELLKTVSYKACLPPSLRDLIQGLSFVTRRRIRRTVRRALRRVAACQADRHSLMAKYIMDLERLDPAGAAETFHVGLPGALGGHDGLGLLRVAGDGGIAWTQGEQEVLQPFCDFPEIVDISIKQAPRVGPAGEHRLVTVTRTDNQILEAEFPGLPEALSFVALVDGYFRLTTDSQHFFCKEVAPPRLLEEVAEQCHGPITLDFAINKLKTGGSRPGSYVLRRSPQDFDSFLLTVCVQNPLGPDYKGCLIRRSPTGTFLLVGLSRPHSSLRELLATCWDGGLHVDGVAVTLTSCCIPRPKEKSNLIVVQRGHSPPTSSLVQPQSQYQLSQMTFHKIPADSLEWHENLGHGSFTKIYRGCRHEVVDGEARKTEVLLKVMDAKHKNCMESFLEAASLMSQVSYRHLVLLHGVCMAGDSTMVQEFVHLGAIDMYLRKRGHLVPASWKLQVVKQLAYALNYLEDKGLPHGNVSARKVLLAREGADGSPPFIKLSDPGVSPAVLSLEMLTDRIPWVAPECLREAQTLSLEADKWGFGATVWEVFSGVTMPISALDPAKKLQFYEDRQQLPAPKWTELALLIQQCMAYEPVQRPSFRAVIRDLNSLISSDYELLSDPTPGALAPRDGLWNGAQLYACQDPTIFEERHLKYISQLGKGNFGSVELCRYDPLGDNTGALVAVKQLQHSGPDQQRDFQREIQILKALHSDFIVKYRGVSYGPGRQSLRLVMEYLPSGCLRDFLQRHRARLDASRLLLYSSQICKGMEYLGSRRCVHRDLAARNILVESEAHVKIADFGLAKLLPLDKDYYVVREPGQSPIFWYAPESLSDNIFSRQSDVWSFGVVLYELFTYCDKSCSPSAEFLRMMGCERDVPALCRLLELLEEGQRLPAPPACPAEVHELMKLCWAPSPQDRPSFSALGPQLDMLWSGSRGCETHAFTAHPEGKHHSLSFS
Description: AlphaScreen assay was used to screen additional kinases. The assay is similarly dependent on the phosphorylation of a peptide substrate. In this assay, an antibody that recognizes phosphorylated substrate is bound to an acceptor bead. The peptide substrate is attached to biotin, which binds to a donor head that contains streptavidin. Thus phosphorylated substrate is bound by antibody and streptavidin, bringing the donor and acceptor heads into close proximity when kinase is not inhibited. The donor produces singlet oxygen which results in emission from the acceptor when they are in close proximity. Conversely, when kinase is inhibited, the donor and acceptor beads are not associated and the emission from the acceptor is reduced.
AlphaScreen assays were done using compounds dissolved in DMSO to a concentration of 20 mM. The compounds were diluted accordingly to the desired final concentrations in each sample well, using 1:3 serial dilution for a total of 8 concentration points.

Stk6 = molecular target: T2, Stk6 (Homo sapiens, UniProt O14965); test: Z'-Lyte FRET kinase assay (Invitrogen), Stk6; details: read-out: IC50, activity toward kinase Stk6
T2 construct: purchased Invitrogen (Carlsbad, Calif.), screening service
T2 sequence (O14965 1-403): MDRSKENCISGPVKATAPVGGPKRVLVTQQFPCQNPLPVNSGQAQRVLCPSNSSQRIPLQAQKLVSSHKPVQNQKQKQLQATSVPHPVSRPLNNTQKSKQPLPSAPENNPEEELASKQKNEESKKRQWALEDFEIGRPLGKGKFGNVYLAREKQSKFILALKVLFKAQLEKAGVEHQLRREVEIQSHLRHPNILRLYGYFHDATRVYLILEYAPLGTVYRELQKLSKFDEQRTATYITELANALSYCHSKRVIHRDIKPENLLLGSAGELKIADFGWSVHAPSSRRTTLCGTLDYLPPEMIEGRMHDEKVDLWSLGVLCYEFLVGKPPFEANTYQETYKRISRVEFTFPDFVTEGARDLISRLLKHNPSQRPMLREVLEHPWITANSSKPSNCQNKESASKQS

Btk = molecular target: T3, Btk (Homo sapiens, UniProt Q06187); test: Z'-Lyte FRET kinase assay (Invitrogen), Btk; details: read-out: IC50, activity toward kinase Btk
T3 construct: purchased Invitrogen (assay run by Invitrogen)

Kdr = molecular target: T4, Kdr (Homo sapiens, UniProt P35968); test: Z'-Lyte FRET kinase assay (Invitrogen), Kdr; details: read-out: IC50, activity toward kinase Kdr
T4 construct: purchased Invitrogen (assay run by Invitrogen)

Ret = molecular target: T5, Ret (Homo sapiens, UniProt P07949); test: AlphaScreen kinase assay, Ret; details: read-out: IC50, activity toward kinase Ret
T5 construct: P1378.pET-SF BI-PTP RET H661-R1012 HIS; made in house
T5 sequence (P07949 with tags, fused parts or gaps): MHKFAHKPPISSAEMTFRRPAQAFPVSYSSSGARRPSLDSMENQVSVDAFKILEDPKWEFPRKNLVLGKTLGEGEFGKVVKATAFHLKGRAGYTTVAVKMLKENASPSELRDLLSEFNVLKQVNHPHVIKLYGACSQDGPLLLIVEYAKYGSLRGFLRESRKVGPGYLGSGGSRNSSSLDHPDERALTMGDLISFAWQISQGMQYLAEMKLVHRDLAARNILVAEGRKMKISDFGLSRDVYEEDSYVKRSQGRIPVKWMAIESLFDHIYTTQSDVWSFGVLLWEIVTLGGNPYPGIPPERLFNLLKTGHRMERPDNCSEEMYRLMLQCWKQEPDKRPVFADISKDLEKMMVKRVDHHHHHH

MAP2K1 = molecular target: T6, MAP2K1 (Homo sapiens, UniProt Q02750); test: Z'-Lyte FRET kinase assay (Invitrogen), MAP2K1; details: read-out: IC50, activity toward kinase MAP2K1
T6 construct: purchased Invitrogen (assay run by Invitrogen)
Description: For example, direct radiometric, indirect FRET or AlphaScreen assays may be used to assess the level of phosphorylation of a substrate in the presence of test compounds in order to determine the inhibitory affect of the compound on the kinase. […] For these assays, compounds of the invention were screened by Invitrogen using Z′-Lyte™ kinase assay.
Briefly, the Invitrogen kinase assay involves use of a specific peptide substrate optimized for each kinase, containing a fluorophore at each end that make up the FRET pair. The peptide sensitivity to proteolytic cleavage depends on phosphorylation of the peptide. Non-phosphorylated peptide is cleaved by a protease while peptide phosphorylated by the kinase is not cleaved. Cleavage of the peptide disrupts the FRET between the donor (coumarin) and acceptor (fluorescein) fluorophores, resulting in an increase in the ratio of donor emission to acceptor emission. The emission ratio of coumarin to fluorescein is used to assess the reaction progress. […] Thus, the assay involves a kinase reaction in the presence of varying concentrations of a given compound, a development reaction with site specific protease, and detection of the fluorescent emission ratio of coumarin and fluorscein. […] Reaction conditions for each kinase are determined to provide optimal reaction times, incubation temperature, kinase and ATP concentrations. Test samples are made up in 1× kinase buffer (50 mM HEPES pH 7.5, 50 mM MgCl2, 5 mM EGTA, 0.05% BRIJ-35) and compound at desired concentration prepared in DMSO such that the final DMSO is 1%. […] All kinase except for MAP2K1 were at 10 μM ATP in the kinase reaction, while MAP2K1 was at 100 μM. Samples are mixed and the kinase reaction is incubated 1 hour at room temperature, after which 5 μl of development solution is added and mixed. After incubation for another 1 hour at room temperature, 5 μl of stop reagent is added to each sample and mixed. The fluorescence signals are measured to determine the emission ratio.

B-Raf V600E = molecular target: T7, B-Raf V600E (Homo sapiens, UniProt P15056, V600E); test: AlphaScreen kinase assay, B-Raf V600E; details: read-out: IC50, activity toward kinase B-Raf V600E
T7 construct: P4254. pFastBacBD-CDC37 BRAF D437-K722-X, V600E; His6 with pFastBac HT leader (TEV site) (N); made in house; host or cells: Sf9 (baculovirus; chaperone CDC37 co-expressed)

FGFR1 = molecular target: T8, FGFR1 (Homo sapiens, UniProt P11362, C488A/C584S); test: AlphaScreen kinase assay, FGFR1; details: read-out: IC50, activity toward kinase FGFR
T8 construct: P1351.pET N6 BI-PTP FGFR A458-E765-X C488A, C584S; made in house; host or cells: E. coli (PTP1B co-expressed)

Yes = molecular target: T9, Yes (Homo sapiens, UniProt P07947); test: Z'-Lyte FRET kinase assay (Invitrogen), Yes; details: read-out: IC50, activity toward kinase Yes
T9 construct: purchased Invitrogen (Carlsbad, Calif.), screening service
In short: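 Inhibition was inferred from protease cleavage of non-phosphorylated peptide, measured as a coumarin/fluorescein ratio. Kinase reactions used 10 μM ATP for 1 h at room temperature.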

Flt4 = molecular target: T10, Flt4 (Homo sapiens, UniProt P35916); test: AlphaScreen kinase assay, Flt4; details: read-out: IC50, activity toward kinase Flt4
T10 construct: purchased ProQinase GmbH (Freiburg, Germany)
In short: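 Biotinylated peptide substrate phosphorylation detected by AlphaScreen with phospho-specific antibody acceptor beads and streptavidin donor beads. Compounds tested as 8-point 1:3 serial dilutions from 20 mM DMSO stocks.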

Pyk2 = molecular target: T11, Pyk2 (Homo sapiens, UniProt Q14289); test: AlphaScreen kinase assay, Pyk2; details: read-out: IC50, activity toward kinase Pyk2
T11 construct: purchased Upstate Biotechnology
Description: AlphaScreen assays were done using compounds dissolved in DMSO to a concentration of 20 mM. The compounds were diluted accordingly to the desired final concentrations in each sample well, using 1:3 serial dilution for a total of 8 concentration points. Plates were prepared such that each kinase reaction is 20 μl in 1× kinase buffer, 5% DMSO and 10 μM ATP. After incubation of the kinase reaction for 1 hour at room temperature, 5 μl of donor beads in stop buffer (50 mM EDTA in 1× kinase buffer) was added, the sample was mixed and incubated for 20 minutes at room temperature before adding 5 μl of acceptor beads in stop buffer. The samples were incubated for 60 minutes at room temperature and the signal per well was read on AlphaQuest reader.

Measured: IC50

T3 sequence (Q06187 whole entry): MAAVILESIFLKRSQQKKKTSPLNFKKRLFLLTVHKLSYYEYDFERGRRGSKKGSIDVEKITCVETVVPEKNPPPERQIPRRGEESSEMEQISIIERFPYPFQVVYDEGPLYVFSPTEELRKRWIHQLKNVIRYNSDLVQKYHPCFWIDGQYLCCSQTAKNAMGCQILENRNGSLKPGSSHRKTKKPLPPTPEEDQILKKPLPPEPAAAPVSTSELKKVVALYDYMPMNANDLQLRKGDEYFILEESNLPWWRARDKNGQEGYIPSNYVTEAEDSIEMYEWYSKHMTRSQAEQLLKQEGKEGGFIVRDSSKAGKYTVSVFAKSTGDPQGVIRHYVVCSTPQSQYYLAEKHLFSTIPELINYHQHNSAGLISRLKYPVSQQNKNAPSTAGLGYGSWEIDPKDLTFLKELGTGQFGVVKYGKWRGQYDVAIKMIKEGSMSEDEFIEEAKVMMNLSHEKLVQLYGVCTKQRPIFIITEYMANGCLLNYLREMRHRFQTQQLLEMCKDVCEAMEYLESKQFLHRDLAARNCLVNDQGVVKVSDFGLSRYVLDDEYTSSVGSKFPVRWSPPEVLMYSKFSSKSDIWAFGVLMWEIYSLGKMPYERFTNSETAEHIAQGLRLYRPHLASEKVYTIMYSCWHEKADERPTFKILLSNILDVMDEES
T7 sequence (P15056 with tags, fused parts or gaps V600E): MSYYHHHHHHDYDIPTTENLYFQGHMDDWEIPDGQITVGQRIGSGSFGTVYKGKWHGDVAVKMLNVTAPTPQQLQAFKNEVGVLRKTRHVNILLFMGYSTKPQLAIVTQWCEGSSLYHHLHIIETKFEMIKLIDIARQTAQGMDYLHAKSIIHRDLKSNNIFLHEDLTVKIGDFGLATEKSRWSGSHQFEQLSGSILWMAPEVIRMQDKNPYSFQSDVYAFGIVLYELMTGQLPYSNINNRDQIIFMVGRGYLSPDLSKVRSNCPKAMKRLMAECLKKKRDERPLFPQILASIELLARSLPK
T4 sequence (P35968 20-1356): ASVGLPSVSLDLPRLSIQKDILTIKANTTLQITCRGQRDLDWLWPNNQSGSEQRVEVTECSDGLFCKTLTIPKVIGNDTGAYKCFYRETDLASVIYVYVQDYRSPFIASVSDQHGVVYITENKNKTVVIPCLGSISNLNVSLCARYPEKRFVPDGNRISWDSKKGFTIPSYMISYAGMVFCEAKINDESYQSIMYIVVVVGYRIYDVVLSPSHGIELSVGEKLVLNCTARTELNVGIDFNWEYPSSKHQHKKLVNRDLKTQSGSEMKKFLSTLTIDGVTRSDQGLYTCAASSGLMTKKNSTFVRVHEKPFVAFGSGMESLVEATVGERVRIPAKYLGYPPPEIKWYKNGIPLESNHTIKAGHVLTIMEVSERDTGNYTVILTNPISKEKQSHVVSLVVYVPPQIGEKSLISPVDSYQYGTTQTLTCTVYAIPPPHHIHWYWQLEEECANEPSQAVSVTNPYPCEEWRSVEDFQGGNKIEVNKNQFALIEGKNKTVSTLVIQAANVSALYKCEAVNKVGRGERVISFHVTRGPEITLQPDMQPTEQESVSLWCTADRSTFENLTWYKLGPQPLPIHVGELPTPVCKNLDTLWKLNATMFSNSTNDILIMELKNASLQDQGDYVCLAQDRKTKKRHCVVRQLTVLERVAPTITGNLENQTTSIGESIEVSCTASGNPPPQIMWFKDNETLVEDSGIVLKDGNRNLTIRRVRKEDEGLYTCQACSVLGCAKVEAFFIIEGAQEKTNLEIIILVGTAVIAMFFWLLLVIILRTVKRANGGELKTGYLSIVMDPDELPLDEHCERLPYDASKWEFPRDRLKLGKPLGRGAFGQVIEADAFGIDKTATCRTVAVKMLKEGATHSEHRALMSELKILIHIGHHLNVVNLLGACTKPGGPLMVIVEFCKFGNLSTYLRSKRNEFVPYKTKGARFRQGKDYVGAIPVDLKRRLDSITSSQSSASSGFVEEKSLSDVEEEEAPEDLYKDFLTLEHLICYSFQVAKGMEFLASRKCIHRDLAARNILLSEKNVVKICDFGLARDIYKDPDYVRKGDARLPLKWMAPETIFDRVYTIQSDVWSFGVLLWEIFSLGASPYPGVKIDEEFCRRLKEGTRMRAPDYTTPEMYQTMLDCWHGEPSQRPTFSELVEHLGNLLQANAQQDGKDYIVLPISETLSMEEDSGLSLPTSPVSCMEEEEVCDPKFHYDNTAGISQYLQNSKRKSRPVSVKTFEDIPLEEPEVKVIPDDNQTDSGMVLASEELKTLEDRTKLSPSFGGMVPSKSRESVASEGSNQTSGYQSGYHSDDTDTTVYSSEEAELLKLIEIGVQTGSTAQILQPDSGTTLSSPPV
T8 sequence (P11362 458-765 C488A/C584S): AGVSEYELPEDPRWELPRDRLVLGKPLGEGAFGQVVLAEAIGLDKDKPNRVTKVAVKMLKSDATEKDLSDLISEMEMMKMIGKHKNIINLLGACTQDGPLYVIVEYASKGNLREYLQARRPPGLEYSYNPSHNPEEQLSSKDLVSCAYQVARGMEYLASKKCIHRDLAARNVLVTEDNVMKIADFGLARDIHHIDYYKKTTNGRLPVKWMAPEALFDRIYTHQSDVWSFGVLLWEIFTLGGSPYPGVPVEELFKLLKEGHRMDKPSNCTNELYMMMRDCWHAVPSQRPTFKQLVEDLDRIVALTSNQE
T6 sequence (Q02750 whole entry): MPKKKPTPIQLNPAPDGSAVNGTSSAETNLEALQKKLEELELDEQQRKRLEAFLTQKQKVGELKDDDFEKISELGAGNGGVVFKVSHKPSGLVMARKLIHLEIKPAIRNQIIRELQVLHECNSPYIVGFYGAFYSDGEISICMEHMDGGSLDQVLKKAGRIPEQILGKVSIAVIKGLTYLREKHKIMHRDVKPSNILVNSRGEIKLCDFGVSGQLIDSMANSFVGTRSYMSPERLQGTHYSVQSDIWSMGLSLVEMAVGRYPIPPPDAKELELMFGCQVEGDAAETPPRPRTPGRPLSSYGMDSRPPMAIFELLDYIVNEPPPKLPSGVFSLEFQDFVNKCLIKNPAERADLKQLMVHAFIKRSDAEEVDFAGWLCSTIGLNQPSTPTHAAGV
T9 sequence (P07947 whole entry): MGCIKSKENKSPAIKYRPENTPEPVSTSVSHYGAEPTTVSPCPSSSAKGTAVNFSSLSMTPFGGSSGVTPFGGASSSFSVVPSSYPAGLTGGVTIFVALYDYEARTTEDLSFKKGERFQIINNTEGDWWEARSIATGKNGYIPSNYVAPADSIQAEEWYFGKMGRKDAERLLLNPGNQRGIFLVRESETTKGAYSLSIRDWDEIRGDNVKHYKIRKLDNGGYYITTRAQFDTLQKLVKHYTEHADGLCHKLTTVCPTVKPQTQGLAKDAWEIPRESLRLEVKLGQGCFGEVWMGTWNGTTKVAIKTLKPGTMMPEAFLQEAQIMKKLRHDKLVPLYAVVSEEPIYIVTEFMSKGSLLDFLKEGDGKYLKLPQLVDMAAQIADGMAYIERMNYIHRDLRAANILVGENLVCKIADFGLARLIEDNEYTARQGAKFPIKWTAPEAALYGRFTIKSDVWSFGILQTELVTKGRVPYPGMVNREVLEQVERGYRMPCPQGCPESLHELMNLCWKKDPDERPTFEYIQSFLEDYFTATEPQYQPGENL
T10 sequence (P35916 25-1363): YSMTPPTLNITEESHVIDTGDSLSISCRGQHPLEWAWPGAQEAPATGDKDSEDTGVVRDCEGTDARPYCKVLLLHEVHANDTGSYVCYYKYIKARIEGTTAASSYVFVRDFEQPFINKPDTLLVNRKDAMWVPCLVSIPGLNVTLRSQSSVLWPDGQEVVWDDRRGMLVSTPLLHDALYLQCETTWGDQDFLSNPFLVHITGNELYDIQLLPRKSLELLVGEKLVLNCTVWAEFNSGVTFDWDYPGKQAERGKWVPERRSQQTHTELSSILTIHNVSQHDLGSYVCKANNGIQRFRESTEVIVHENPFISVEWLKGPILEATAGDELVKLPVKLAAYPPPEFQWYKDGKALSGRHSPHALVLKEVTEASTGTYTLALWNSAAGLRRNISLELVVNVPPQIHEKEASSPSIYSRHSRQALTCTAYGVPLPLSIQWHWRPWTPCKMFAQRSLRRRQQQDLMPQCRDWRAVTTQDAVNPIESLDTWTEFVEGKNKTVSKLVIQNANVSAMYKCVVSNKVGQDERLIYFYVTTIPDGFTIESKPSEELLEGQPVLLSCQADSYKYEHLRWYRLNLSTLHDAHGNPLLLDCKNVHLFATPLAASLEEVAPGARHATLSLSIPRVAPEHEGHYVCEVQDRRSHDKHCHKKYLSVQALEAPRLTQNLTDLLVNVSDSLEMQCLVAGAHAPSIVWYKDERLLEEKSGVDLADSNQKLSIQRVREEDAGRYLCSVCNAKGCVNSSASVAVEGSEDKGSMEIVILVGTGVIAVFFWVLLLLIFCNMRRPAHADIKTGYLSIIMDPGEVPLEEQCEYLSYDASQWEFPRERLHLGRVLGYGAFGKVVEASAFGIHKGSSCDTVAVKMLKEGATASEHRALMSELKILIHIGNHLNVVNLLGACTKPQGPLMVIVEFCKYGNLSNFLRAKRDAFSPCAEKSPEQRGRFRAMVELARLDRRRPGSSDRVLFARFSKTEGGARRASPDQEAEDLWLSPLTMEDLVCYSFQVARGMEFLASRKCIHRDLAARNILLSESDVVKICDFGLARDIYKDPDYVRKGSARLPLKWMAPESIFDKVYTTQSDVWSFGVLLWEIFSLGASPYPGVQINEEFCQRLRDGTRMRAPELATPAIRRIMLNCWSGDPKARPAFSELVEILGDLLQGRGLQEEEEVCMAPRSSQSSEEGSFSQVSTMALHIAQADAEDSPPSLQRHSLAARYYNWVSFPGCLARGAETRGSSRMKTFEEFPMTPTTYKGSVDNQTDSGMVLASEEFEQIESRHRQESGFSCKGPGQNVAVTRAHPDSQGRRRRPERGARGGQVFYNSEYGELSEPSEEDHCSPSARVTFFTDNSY

O=C(c1ccccc1F)c1c[nH]c2nccc(-c3cccnc3)c12 [Compound P-0061]
≤ 10 µM: Jak3 | Stk6 | Btk | Kdr | Ret | MAP2K1

O=C(O)/C=C/c1cccc(-c2ccnc3[nH]cc(C(=O)c4ccccc4F)c23)c1 [Compound P-0108]
≤ 10 µM: Jak3 | B-Raf V600E | Btk | Kdr | Ret | MAP2K1

O=C(c1cc(F)ccc1F)c1c[nH]c2nccc(-c3ccsc3)c12 [Compound P-0119]
≤ 10 µM: Jak3 | B-Raf V600E | Stk6 | FGFR1 | Ret

CS(=O)(=O)c1cccc(-c2ccnc3[nH]cc(C(=O)c4ccccc4F)c23)c1 [Compound P-0138]
≤ 10 µM: Jak3 | Btk | Yes | Ret

O=C(O)/C=C/c1cccc(-c2ccnc3[nH]cc(C(=O)c4cc(F)ccc4F)c23)c1 [Compound P-0141]
≤ 10 µM: Jak3 | B-Raf V600E | Kdr | Ret

OCc1cccc(-c2ccnc3[nH]cc(Sc4cccc(F)c4)c23)c1 [Compound P-0187]
≤ 10 µM: Jak3 | B-Raf V600E | Stk6

O=C(c1cc(F)ccc1F)c1c[nH]c2nccc(-c3cc(F)cc(F)c3)c12 [Compound P-0215]
≤ 10 µM: Jak3 | B-Raf V600E | Flt4 | FGFR1 | Ret

CC(C)(C)OC(=O)Nc1ccc(F)c(C(O)c2c[nH]c3ncc(Br)cc23)c1F (stereo not shown) [Compound P-0318, {3-[(5-Bromo-1H-pyrrolo[2,3-b]pyridin-3-yl)-hydroxy-methyl]-2,4-difluoro-phenyl}-carbamic acid tert-butyl ester]
≤ 10 µM: Jak3 | B-Raf V600E | Pyk2

O=C(c1ccccc1F)c1c[nH]c2nccc(-c3ccccc3F)c12 [Compound P-0730]
≤ 10 µM: Jak3 | B-Raf V600E | FGFR1 | Kdr | Ret

CCCC(=O)Nc1ccc(F)c(C(O)c2c[nH]c3ncc(OC)cc23)c1F (stereo not shown) [Compound P-01367]
≤ 10 µM: Jak3

NC(=O)c1cccc(-c2cnc3[nH]cc(Cc4ccccc4O)c3c2)c1 [Compound P-01385]
≤ 10 µM: Jak3
